By IC50 is commonly meant the concentration at which inhibition is half-maximal. Read a high IC50 as weaker potency in that assay.

Structures can show the parent of a compound that is named as a salt.

The text below walks through data of patent EP1077942B1, “CARBOXY SUBSTITUTED CARBOXAMIDE DERIVATIVES AS TACHYKININ RECEPTOR ANTAGONISTS” (Aventis Pharmaceuticals Inc., priority 1998, dated 1999).

For assay [1], the target named is T1, NK1 receptor (Cavia porcellus, UniProt P30547).
T1 construct: evaluated in guinea pig lungs (Keystone Biologicals, Cleveland, OH); tissue Keystone Biologicals, Cleveland, OH; host or cells: guinea pig lung membrane homogenate
T1 sequence (P30547 whole entry): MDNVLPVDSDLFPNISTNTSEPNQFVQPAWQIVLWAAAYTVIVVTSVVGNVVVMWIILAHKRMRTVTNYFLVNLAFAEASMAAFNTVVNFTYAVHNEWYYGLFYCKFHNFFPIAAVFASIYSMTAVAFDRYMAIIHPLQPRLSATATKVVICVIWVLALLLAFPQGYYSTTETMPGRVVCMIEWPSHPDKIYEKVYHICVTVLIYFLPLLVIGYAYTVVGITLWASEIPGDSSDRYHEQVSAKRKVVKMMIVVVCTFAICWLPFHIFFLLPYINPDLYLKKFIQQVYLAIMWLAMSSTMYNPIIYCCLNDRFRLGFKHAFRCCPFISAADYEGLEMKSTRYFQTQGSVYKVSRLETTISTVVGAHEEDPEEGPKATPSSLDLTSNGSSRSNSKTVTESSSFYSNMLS
The experiment in a line: Antagonism of iodinated tachykinin binding to NK1 receptor (Example A). To be noted: guinea pig lungs membranes; 125I-Bolton Hunter Lys-3 labeled substance P 0.1 nM; mean of several experiments. Here is the method:
(§1) Antagonism of iodinated tachykinin binding to NK1 and NK2 receptors by putative antagonists
(§2) One skilled in the art can determine the NK1 receptor and NK2 receptor affinity in vitro as follows. The NK1 receptor affinity of tachykinin antagonists is evaluated in guinea pig lungs (Keystone Biologicals, Cleveland, OH) and affinity for the NK2 receptor is evaluated in HSKR-1 cells (which are mouse 3T3 fibroblasts expressing the human jejunal NK2 receptor). Tissues or cells are homogenized with a Polytron in 15 volumes of 50 mM Tris-HCl buffer (pH 7.4, 4°C) and centrifuged. The pellet is resuspended in Tris-HCl buffer and is centrifuged; the pellet is washed twice by resuspension. The final pellet is resuspended at a concentration of 40 mg/ml for tissues and 20 mg/ml for cells in incubation buffer and remains at room temperature for at least 15 min prior to use. […] Filter bound radioactivity is quantitated in a gamma counter. Nonspecific binding is defined as binding in the presence of 1 µM substance P or neurokinin A. Specific binding is calculated by subtracting nonspecific binding from total binding. Competition of iodinated SP or NKA binding by test compounds or standards is expressed as a percentage of this maximum binding. […]

Assay [2] has as its target T2, human jejunal NK2 receptor (Homo sapiens, UniProt P21452).
T2 construct: expressed in transfected cells; host or cells: HSKR-1 cells (mouse 3T3 fibroblasts)
T2 sequence (P21452 1-398): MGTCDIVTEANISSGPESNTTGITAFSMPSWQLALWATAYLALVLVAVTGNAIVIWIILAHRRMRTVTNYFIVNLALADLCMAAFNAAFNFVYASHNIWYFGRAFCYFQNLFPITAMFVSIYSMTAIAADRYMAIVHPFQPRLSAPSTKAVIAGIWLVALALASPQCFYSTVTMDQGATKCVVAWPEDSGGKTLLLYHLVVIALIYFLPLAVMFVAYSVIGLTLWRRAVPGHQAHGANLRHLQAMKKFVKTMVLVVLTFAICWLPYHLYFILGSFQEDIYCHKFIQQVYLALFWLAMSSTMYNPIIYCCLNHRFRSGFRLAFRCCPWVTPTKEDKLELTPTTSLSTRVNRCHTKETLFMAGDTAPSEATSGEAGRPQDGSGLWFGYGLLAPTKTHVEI
The experiment in a line: Antagonism of iodinated tachykinin binding to NK2 receptor (Example A). To be noted: HSKR-1 cells (mouse 3T3 fibroblasts expressing the human jejunal NK2 receptor); 125 iodohistidyl-1-neurokinin A 0.1 nM; mean of several experiments. Here is the method:
as §1, §2

With `CCOC(=O)CN1CCN(C(=O)C2(c3ccccc3)CCN(CC[C@H](CN(C)C(=O)c3cc(-n4cnnn4)ccc3OC)c3ccc(Cl)c(Cl)c3)CC2)CC1` [Example 1.2, (S)-N-methyl-N-(4-(4-phenyl-4-((4-carboethoxymethylpiperazin-1-yl)carboxamido)piperidin-1-yl) 2-(3,4-dichlorophenyl)butyl)-2-methoxy-5-(1H-tetrazol-1-yl)benzamide hydrochloric acid salt], the IC50 is 23 nM in assay [1] and 178 nM in assay [2].
